Source: patent publication US12441704B2, “Compounds active towards nuclear receptors” (NUEVOLUTION A/S, priority 2019, dated 2025)
Read-outs that look alike come from different tables or passages of the source.

Assays:
[1] = test system: Collagen-induced arthritis; assay: Collagen-induced arthritis (CIA) study; type: in vivo; conditions: 3 mpk p.o. b.i.d.; DBA/1J mice
Experimental: Collagen-induced arthritis is an animal model of rheumatoid arthritis used to evaluate the efficacy of test compounds. CIA was induced at Washington Biotechnology Inc. (Baltimore) in male DBA/1J mice (Jackson Laboratories) by subcutaneous injection at the base of the tail with 50 μl of a bovine collagen/complete Freund's adjuvant emulsion. After 21 days, the mice were further boosted by a further subcutaneous injection of 50 μl of a collagen/incomplete Freund's adjuvant emulsion. For treatment, compound or vehicle (2% DMSO, 10% HP-β-CD in MilliQ water) was given orally twice daily at various doses selected from 3, 10, 30 mg/kg, beginning at the day of CIA induction (Prophylactic setting), or after disease initiation (at day 27, therapeutic setting). Treatment lasted until day 41, and the animals were scored three times weekly. Each paw was scored and the sum of all four scores was recorded as the Arthritic Index (AI). The maximum possible AI was 16. 0=no visible effects of arthritis; 1=edema and/or erythema of one digit; 2=edema and/or erythema of 2 joints; 3=edema and/or erythema of more than 2 joints; 4=severe arthritis of the entire paw and digits including limb deformation and ankylosis of the joint. The Arthritis Index for each treatment can be expressed as the mean score for each treatment group+/−S.E.M.

[2] = test system: IL-17A secretion in activated PBMCs; assay: IL-17A secretion in activated PBMCs; type: cell-based, human; conditions: human PBMCs stimulated with CD3/CD28 Dynabeads for 48 h, absolute IC50
Outline: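 Human PBMCs from healthy donors, 40,000 cells/well, were preincubated 30 min with compound in 10-point 5-fold dilutions (0.1% DMSO), then stimulated 48 h at 37° C with CD3/CD28 beads (1:1). Supernatant IL-17A was read by bead immunoassay on a flow cytometer. Inhibition was normalized to activated DMSO (top) and GNE09461 10 μM (basal).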

[3] = biological target: T1, RORγ ligand-binding domain fused to Gal4 (Homo sapiens, UniProt P51449); assay: RORγ Reporter Assay (Gal4); type: cell-based
T1 construct: Gal4 (galactose-responsive transcription factor); expressed in transfected cells; host or cells: HEK293
T1 sequence (P51449 269-508 limits assumed): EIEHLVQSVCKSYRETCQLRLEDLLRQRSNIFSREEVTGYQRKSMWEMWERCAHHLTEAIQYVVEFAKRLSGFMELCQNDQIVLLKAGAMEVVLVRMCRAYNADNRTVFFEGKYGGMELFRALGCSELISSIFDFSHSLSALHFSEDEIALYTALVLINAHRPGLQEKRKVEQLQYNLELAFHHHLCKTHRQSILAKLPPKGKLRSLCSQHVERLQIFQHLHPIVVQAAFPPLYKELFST
Outline: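 Percent inhibition was derived from luciferase RLU versus vehicle mean after 24 h compound incubation (37 °C, 0.1% DMSO). The cells were HEK293, transiently co-expressing a Gal4–RORγ ligand-binding-domain fusion plus a UAS-driven luciferase gene.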

plasma IL-17A = assay: In vivo IL-17A induction in anti-CD3 model in mice; conditions: oral gavage twice daily day 0 to day 3, C57BL/6JRj mice
Experimental: Male C57BL/6JRj mice (7 week old) were purchased from Janvier Labs and housed at the animal facilities of Almirall throughout the study. Animals were allowed to condition for 5 days in their new environment at 22° C.±2° C., 55%±10% relative humidity and 12 h: 12 h light:dark cycles. Animals were housed in polycarbonate cages, with free access to water and non-purified stock diet (2014 Teklad Global 14% Protein Rodent Maintenance Diet, Envigo) during the full course of the studies. Care of animals was undertaken in compliance with the European Committee Directive 2010/63/EU, and the Catalan and Spanish law. All procedures were performed according to the ARRIVE guidelines (Animal Research: Reporting of In Vivo Experiments) and with approval from the Animal Experimentation Ethical Committee of Almirall (Barcelona, Spain).
Mice were injected intraperitoneally with 7.5 μg of anti-CD3e (Clone 145-2C11 from Pharmingen BD) at 0 h (day 0) and […] (day 3) time-points. The non-induced-group were injected with PBS instead of anti-CD3e. At study completion (4 h after anti-CD3e injection), animals were anaesthetized with isofluorane (Baxter) and 0.5-1 mL blood samples were drawn by intracardiac puncture in heparinized tubes. Plasma samples were stored at −80° C. for subsequent analysis.
Test compounds were freshly suspended in sterile 0.5% methylcellulose 0.1% tween-80 solution (10 mL/kg body weight). […]
Plasma levels of IL-17A were measured by ELISA (R&D Systems) according to the manufacturer's instruction. Results were calculated as the percentage of reduction of plasma IL-17A versus the difference between non-induced and anti-CD3e induced groups through the formula: inhibition=100*[1−[(x−mean non-induced)/(mean control vehicle−mean non-induced)]]. The IL-17A inhibition for each treatment can be expressed as the mean for each treatment group±S.E.M. Statistical analysis of data were conducted with one-way ANOVA followed by Dunnett's multiple comparisons test when appropriate. […]

Th17 cells = assay: Th17 Assay (IL-17 levels in supernatants of differentiating Th17 cells); type: cell-based; conditions: 168 h; human naive CD4+ T cells differentiated to Th17 for seven days; IL-17 in supernatants by ELISA
Experimental: The following modifications were made to the manufacturer's protocol: 1) Incubation with Biotin-Antibody Cocktail and Anti-Biotin MicroBeads was prolonged to 30 minutes, and 2) Cells were washed with 40 mL of Miltenyi buffer. […] Test compounds were tested in triplicates, diluted 1000-fold in medium (final DMSO concentration is 0.1%). Incubated for seven days at 37° C., 5% CO2, 95% humidity, and 2-fluoro-4′-[[4-(4-pyridinylmethyl)-1-piperazinyl]methyl]-α,α-bis(trifluoromethyl)-[1,1′-biphenyl]-4-methanol (SR2211 Calbiochem, Cat. No. 557353) was used as positive control. As negative control, cells were differentiated into Th0 using 5 μg/ml anti-CD28 (BD Pharmingen), 10 ng/ml IL-2 (R&D Systems), 2 μg/ml anti-ILA (R&D Systems) and 2 μg/ml anti-IFNγ (R&D Systems) are negative control. IL-17 levels in supernatants were measured with ELISA (R&D Systems).

[4] = biological target: T1, RORγ ligand-binding domain fused to Gal4; conditions: cited from earlier work
[5] = comparison compounds of WO2016020288, source marked WO2016020288
[6] = RORγ Gal4 assay EC50, Examples in <100 range, Examples of WO2016020288, based on % inhibition at 0.1 and/or 1 uM (Table 5 c, footnote 4)
[7] = RORγ Gal4 assay EC50, Examples in <500 range, Examples of WO2016020288, based on % inhibition at 0.1 and/or 1 uM (Table 5 c, footnote 5)
[8] = comparison examples of WO2016020288 (footnote 1)
[9] = HEK293 cells co-transfected with RORγ LBD-Gal4 and luciferase reporter, 24 h incubation, absolute EC50, read-out: EC50

EC50 [3, 6] | EC50 [3, 7] | SMILES | IC50 ([2]; Homo sapiens, PBMC, 48 h) | EC50 [4, 8] | further results
– | – | NC(=O)CN1CC[C@@H](CNc2ncnc(N(Cc3ccc(C(F)(F)F)cc3)C3CC3)c2F)[C@H](O)C1 (single isomer, unassigned) [Example A7-01-1] | 0.0063 µM | – | reduction in AI (Arthritic Index) as compared to the anti-IL-17A antibody [1]: 74%; EC50 ([3]; compounds of the present disclosure, source: Table 2 herein, read-out: Gal4 assay EC50): < 0.1 µM; Inhibition of IL-17A (%) at 3 mg/kg (plasma IL-17A): 80%
– | – | NC(=O)CN1CCC(CNc2ncnc(N(Cc3ccc(C(F)(F)F)cn3)C3CC3)c2F)C(F)(F)C1 (single isomer, unassigned) [Example A7-03-1] | – | – | EC50 (Th17 cells): 0.083 µM; EC50 ([3]; compounds of the present disclosure, value from Table 2 herein, read-out: Gal4 assay EC50): < 0.1 µM
– | – | CCN(Cc1ccc(C(F)(F)F)cc1)c1ncnc(NC[C@]2(O)CCN(CC(N)=O)C[C@H]2O)c1F (single isomer, unassigned) [Example D5-01-1-1] | – | – | IC50 [2]: 0.0019 µM; Inhibition of IL-17A (%) at 3 mg/kg (plasma IL-17A): 92%
– | – | CCN(Cc1ccc(C(F)(F)F)cc1F)c1ncnc(NC[C@]2(O)CCN(CC(N)=O)C[C@H]2O)c1F (single isomer, unassigned) [Example D5-03-1-1] | 0.003 µM | – | Inhibition of IL-17A (%) at 3 mg/kg (plasma IL-17A): 93%
< 0.1 µM | < 0.5 µM | NC(=O)Cc1ccc(CNc2ncnc(N(Cc3ccc(C(F)(F)F)cc3)C3CC3)c2F)cc1 [Example A2, reference compound] | – | – | EC50 [4, 5]: < 0.1 µM
< 0.1 µM | < 0.5 µM | CC(c1ccc(C(F)(F)F)cc1)N(c1ncnc(NCc2ccc(CC(N)=O)cc2)c1F)C1CC1 (stereo not shown) [Example A3, reference compound] | – | < 0.1 µM | –
< 0.1 µM | < 0.5 µM | CS(=O)(=O)N1CCC(CNc2ncnc(N(Cc3ccc(C(F)(F)F)cc3)C3CC3)c2F)CC1 [Example A7, reference compound] | – | – | EC50 [4, 5]: < 0.1 µM
– | – | NC(=O)C(CO)N1CCC(CO)(CNc2ncnc(N(Cc3ccc(C(F)(F)F)cc3)C3CC3)c2F)CC1 (stereo not shown) [Example A7-70, 2-(4-(((6-(cyclopropyl(4-(trifluoromethyl)benzyl)amino)-5-fluoropyrimidin-4-yl)amino)methyl)-4-(hydroxymethyl)piperidin-1-yl)-3-hydroxypropanamide] | 0.012 µM | – | EC50 [3, 9]: 0.0088 µM
– | – | NC(=O)CN1CCC(CNc2ncnc(N(Cc3ccc(C(F)(F)F)cc3)C3CC3)c2F)(c2ncon2)CC1 [Example A7-81, 2-(4-(((6-(Cyclopropyl(4-(trifluoromethyl)benzyl)amino)-5-fluoropyrimidin-4-yl)amino)methyl)-4-(1,2,4-oxadiazol-3-yl)piperidin-1-yl)acetamide] | 0.12 µM | – | EC50 [3, 9]: 0.0053 µM
– | – | NC(=O)CN1CCC(CNc2ncnc(N(Cc3ccc(C(F)(F)F)cc3)C3CC3)c2F)(c2nnco2)CC1 [Example A7-82, 2-(4-(((6-(Cyclopropyl(4-(trifluoromethyl)benzyl)amino)-5-fluoropyrimidin-4-yl)amino)methyl)-4-(1,3,4-oxadiazol-2-yl)piperidin-1-yl)acetamide] | 0.15 µM | – | EC50 [3, 9]: 0.0081 µM
– | – | NC(=O)CN1CCC(CNc2ncnc(N(Cc3ccc(C(F)(F)F)cc3)C3CC3)c2F)(c2cnn[nH]2)CC1 [Example A7-85, 2-(4-(((6-(Cyclopropyl(4-(trifluoromethyl)benzyl)amino)-5-fluoropyrimidin-4-yl)amino)methyl)-4-(1H-1,2,3-triazol-5-yl)piperidin-1-yl)acetamide] | 0.12 µM | – | EC50 [3, 9]: 0.0079 µM
– | < 0.5 µM | CC(=O)N1CCC(CNc2ncnc(N(Cc3ccc(C(F)(F)F)cc3)C3CC3)c2F)CC1 [Example A11, reference compound] | – | – | EC50 [4, 5]: < 0.1 µM
< 0.1 µM | < 0.5 µM | OC1(CNc2ncnc(N(Cc3ccc(C(F)(F)F)cc3)C3CC3)c2F)CCC(F)(F)CC1 [Example A44, reference compound] | – | – | EC50 [4, 5]: < 0.1 µM
< 0.1 µM | < 0.5 µM | NC(=O)Cc1ccc(CNc2ncnc(N(Cc3ccc(C(F)(F)F)nc3)C3CC3)c2F)cc1 [Example A83, reference compound] | – | < 0.1 µM | –
< 0.1 µM | < 0.5 µM | NC(=O)Cc1ccc(CNc2ncnc(N(Cc3ccc(C(F)(F)F)cn3)C3CC3)c2F)cc1 [Example A85, reference compound] | – | < 0.1 µM | –
– | < 0.5 µM | NC(=O)CC1CC(CNc2ncnc(N(Cc3ccc(C(F)(F)F)cc3)C3CC3)c2F)C1 (stereo not shown) [Example A95, reference compound] | – | – | EC50 [4, 5]: < 0.5 µM
< 0.1 µM | < 0.5 µM | NC(=O)Cc1ccc(CNc2ncnc(N(Cc3cnc(C(F)(F)F)nc3)C3CC3)c2F)cc1 [Example A98, reference compound] | – | < 0.1 µM | –
< 0.1 µM | < 0.5 µM | NC(=O)Cc1ccc(CNc2ncnc(N(Cc3cccc(OC(F)(F)F)c3)C3CC3)c2F)cc1 [Example A102, reference compound] | – | < 0.1 µM | –
< 0.1 µM | < 0.5 µM | CN(Cc1cccc(OC(F)(F)F)c1)c1ncnc(NCc2ccc(CC(N)=O)cc2)c1F [Example A128, reference compound] | – | < 0.1 µM | –
